This test concerns Plasmodium berghei. In words: Luciferase/luciferin-expressing antifolate-resistant parasites were used to infect a culture of HepG2 cells that were pre-incubated with compounds. Infected hepatocytes emit light due to the luciferase reaction. Assay results are presented as the percent inhibition of light emission compared to control. […]. It counts as functional. To be noted: sporozoite; for IC90: read-out: LUCIFERASE INFECTION ASSAY - IC90.

Molecules are shown by their SMILES.

One may read the IC50 as the midpoint of a concentration-inhibition curve. As usually defined, the IC90 is the concentration at which the effect reaches the 90% level. Consider `CC[n+]1ccccc1C=Cc1ccc(N(C)C)cc1`, for which the IC90 came to 6.2 µM. The half-inhibitory concentration (IC50) (HEPG2TOX_HILL_SLOPE 3.25, HEPG2TOX_R_SQUARED 0.92, PBLUC_HILL_SLOPE 1.1, PBLUC_R_SQUARED 0.874, read-out: LUCIFERASE INFECTION ASSAY - IC50) is 0.835 µM.
Regarding `Cc1sc2nc(CSc3ccc([N+](=O)[O-])c(C(F)(F)F)c3)nc(O)c2c1C`, the IC90 stood at 8.65 µM. Further, for the setting “HEPG2TOX_HILL_SLOPE 3.24, HEPG2TOX_R_SQUARED 0.988, PBLUC_HILL_SLOPE 5.99, PBLUC_R_SQUARED 0.334, read-out: LUCIFERASE INFECTION ASSAY - IC50”, the IC50 was 5.99 µM.
Take `CC1=CC(C)(C)N2C(=O)C3(NCCc4c3[nH]c3ccccc43)c3cc(C)cc1c32` (stereo unspecified): the IC90 was 3.21 µM. The IC50 (HEPG2TOX_HILL_SLOPE 3.19, HEPG2TOX_R_SQUARED 0.903, PBLUC_HILL_SLOPE 11.5, PBLUC_R_SQUARED 0.604, read-out: LUCIFERASE INFECTION ASSAY - IC50) is 2.66 µM.
For the molecule `Oc1cccc(-c2cnc3ccc(-c4cccc5ncccc45)nn23)c1`, the IC90 is more than 10 µM. Also, the IC50 (HEPG2TOX_HILL_SLOPE 3.26, HEPG2TOX_R_SQUARED 0.941, PBLUC_HILL_SLOPE 1.24, PBLUC_R_SQUARED 0.528, read-out: LUCIFERASE INFECTION ASSAY - IC50) is 1.84 µM.
With `COc1ccc(OC)c(CCNc2nc3cnc(-c4cccs4)cc3n2C)c1`, the IC90 was 3.85 µM. For the same molecule, the IC50 (HEPG2TOX_HILL_SLOPE 3.25, HEPG2TOX_R_SQUARED 0.886, PBLUC_HILL_SLOPE 11.1, PBLUC_R_SQUARED 0.592, read-out: LUCIFERASE INFECTION ASSAY - IC50) is 3.16 µM.
On to `COc1ccc(NC(=O)c2ccn[nH]2)cc1NC(=O)c1ccc(Cl)cc1F`, for which the IC90 was determined as 4.87 µM. The IC50 (HEPG2TOX_HILL_SLOPE 3.17, HEPG2TOX_R_SQUARED 0.943, PBLUC_HILL_SLOPE 8.03, PBLUC_R_SQUARED 0.294, read-out: LUCIFERASE INFECTION ASSAY - IC50) amounted to 3.7 µM.
For the molecule `Cc1cc(C)c(-c2csc(NC(=O)C3CC4CCCC(C3)C4=O)n2)c(C)c1` (stereo unspecified), the concentration for an effect of 90% (IC90) was more than 10 µM. Under “HEPG2TOX_HILL_SLOPE 3.24, HEPG2TOX_R_SQUARED 0.936, PBLUC_HILL_SLOPE 1.48, PBLUC_R_SQUARED 0.583, read-out: LUCIFERASE INFECTION ASSAY - IC50”, the IC50 was found to be 2.93 µM.
Consider `Fc1ccc(Oc2ccc(CNc3ncnc4nc[nH]c34)cn2)cc1`, for which the IC90 is more than 10 µM. Moreover, the IC50 (HEPG2TOX_HILL_SLOPE 3.2, HEPG2TOX_R_SQUARED 0.895, PBLUC_HILL_SLOPE 3.02, PBLUC_R_SQUARED 0.0659, read-out: LUCIFERASE INFECTION ASSAY - IC50) came out at 5.84 µM.
As to `CNc1nc2cnc(Nc3ccc(C(F)(F)F)cc3)cc2n1Cc1ccccc1`, the IC90 is more than 10 µM. Besides, where the note is “HEPG2TOX_HILL_SLOPE 3.2, HEPG2TOX_R_SQUARED 0.033, read-out: LUCIFERASE INFECTION ASSAY - IC50”, the IC50 is more than 10 µM.
Regarding `O=C(Nc1cccc(Cl)c1)C1=COC2=NC(=O)N(Cc3cccc(Cl)c3)CCN12`, the IC90 is more than 10 µM. Moreover, where the note is “HEPG2TOX_HILL_SLOPE 3.25, HEPG2TOX_R_SQUARED 0.784, PBLUC_HILL_SLOPE 3.78, PBLUC_R_SQUARED 0.178, read-out: LUCIFERASE INFECTION ASSAY - IC50”, the IC50 stood at 6.88 µM.
On to `c1ccc(-c2ccc3ncc(-c4cccnc4)n3n2)cc1`, for which the IC90 stood at 3.68 µM. Moreover, under “HEPG2TOX_HILL_SLOPE 3.18, HEPG2TOX_R_SQUARED 0.875, PBLUC_HILL_SLOPE 8.44, PBLUC_R_SQUARED 0.581, read-out: LUCIFERASE INFECTION ASSAY - IC50”, the IC50 was determined as 2.84 µM.
`COc1ccc(OC)c(NC(=O)c2ccc(NC3=C(Cl)C(=O)N(C4CCCCC4)C3=O)cc2)c1`: the IC90 was found to be 8.05 µM. For the same molecule, the IC50 (HEPG2TOX_HILL_SLOPE 3.19, HEPG2TOX_R_SQUARED 0.935, PBLUC_HILL_SLOPE 2.39, PBLUC_R_SQUARED 0.579, read-out: LUCIFERASE INFECTION ASSAY - IC50) amounted to 3.21 µM.
For the molecule `Cc1ccccc1OCCN(C)C(=O)NCCc1cccs1`, the IC90 came to 4.09 µM. Also, where the note is “HEPG2TOX_HILL_SLOPE 3.22, HEPG2TOX_R_SQUARED 0.951, PBLUC_HILL_SLOPE 11.1, PBLUC_R_SQUARED 0.17, read-out: LUCIFERASE INFECTION ASSAY - IC50”, the IC50 turned out to be 3.35 µM.
With `O=C(Nc1nc2ccccn2c1C(=O)NC1CCCC1)c1ccccc1`, the IC90 was determined as 7.5 µM. For the same molecule, the IC50 (HEPG2TOX_HILL_SLOPE 3.22, HEPG2TOX_R_SQUARED 0.898, PBLUC_HILL_SLOPE 4.41, PBLUC_R_SQUARED 0.561, read-out: LUCIFERASE INFECTION ASSAY - IC50) was found to be 4.56 µM.
In the case of `Cc1cc2occ(CC(=O)Nc3sccc3C(N)=O)c2cc1C(C)C`, the IC90 amounted to 4.1 µM. The IC50 (HEPG2TOX_HILL_SLOPE 3.18, 2.30, HEPG2TOX_R_SQUARED 0.297, 0.732, PBLUC_HILL_SLOPE 15.1, PBLUC_R_SQUARED 0.252, read-out: LUCIFERASE INFECTION ASSAY - IC50) came to 3.55 µM.
Regarding `CC1N(C)c2ccc(/C=C/c3sc4ccccc4[n+]3C)cc2C1(C)C` (stereo unspecified), the IC90 was 4.5 µM. In addition, the IC50 (HEPG2TOX_HILL_SLOPE 3.18, HEPG2TOX_R_SQUARED 0.945, PBLUC_HILL_SLOPE 1.61, PBLUC_R_SQUARED 0.672, read-out: LUCIFERASE INFECTION ASSAY - IC50) is 1.15 µM.
Take `COc1ccc(NCC2(c3ccnc(-c4ccccc4Cl)c3)CC2)cc1OC`: the IC90 was 9.12 µM. Also, the IC50 (HEPG2TOX_HILL_SLOPE 3.27, HEPG2TOX_R_SQUARED 0.816, PBLUC_HILL_SLOPE 4.33, PBLUC_R_SQUARED 0.443, read-out: LUCIFERASE INFECTION ASSAY - IC50) came out at 5.49 µM.
For `c1ccc(-c2csc3nc(CN4CCCCC4)nc(Sc4nnc(-c5cccnc5)o4)c23)cc1`, the IC90 was found to be 3.67 µM. In addition, the IC50 (HEPG2TOX_HILL_SLOPE 3.21, 5.75, HEPG2TOX_R_SQUARED 0.957, 0.718, PBLUC_HILL_SLOPE 33.6, 11.3, PBLUC_R_SQUARED 0.628, 0.512, read-out: LUCIFERASE INFECTION ASSAY - IC50) amounted to 3.23 µM.
With `O=C(CCn1cnc2ccccc2c1=O)Nc1ccc(Br)cn1`, the IC90 is 4.76 µM. The IC50 (HEPG2TOX_HILL_SLOPE 3.2, HEPG2TOX_R_SQUARED 0.878, PBLUC_HILL_SLOPE 4.82, PBLUC_R_SQUARED 0.722, read-out: LUCIFERASE INFECTION ASSAY - IC50) turned out to be 3.02 µM.
On to `COc1cccc(CN2CCN3C=C(C(=O)Nc4ccc(OCc5ccccc5)cc4)OC3=NC2=O)c1`, for which the IC90 is more than 10 µM. Also, under “HEPG2TOX_HILL_SLOPE 3.22, HEPG2TOX_R_SQUARED 0.229, read-out: LUCIFERASE INFECTION ASSAY - IC50”, the IC50 was more than 10 µM.
`CC(C)(C)c1ccc(-c2ccc(OCCCc3ccccn3)nc2)cc1`: the IC90 was more than 9.52 µM. Where the note is “HEPG2TOX_HILL_SLOPE 3.23, HEPG2TOX_R_SQUARED 0.98, PBLUC_HILL_SLOPE 2.82, PBLUC_R_SQUARED 0.72, read-out: LUCIFERASE INFECTION ASSAY - IC50”, the IC50 was 6.22 µM.
In the case of `CCS(=O)(=O)c1ncc(Cl)c(C(=O)Nc2ccc(C(=O)OC)cc2)n1`, the IC90 worked out at 4.66 µM. Also, the IC50 (HEPG2TOX_HILL_SLOPE 3.26, HEPG2TOX_R_SQUARED 0.643, PBLUC_HILL_SLOPE 9.13, PBLUC_R_SQUARED 0.474, read-out: LUCIFERASE INFECTION ASSAY - IC50) is 3.67 µM.
With `CCOc1cccc2c(C)nc(Nc3nc(=O)c4ccccc4[nH]3)nc12`, the IC90 is 7.27 µM. Also, the IC50 (HEPG2TOX_HILL_SLOPE 3.19, HEPG2TOX_R_SQUARED 0.9, PBLUC_HILL_SLOPE 4.13, PBLUC_R_SQUARED 0.554, read-out: LUCIFERASE INFECTION ASSAY - IC50) was determined as 4.27 µM.
`O=c1[nH]ncc(NCCCc2ccccc2)c1Cl`: the IC90 is more than 10 µM. Besides, where the note is “HEPG2TOX_HILL_SLOPE 3.21, 1.90, HEPG2TOX_R_SQUARED 0.492, 0.980, PBLUC_HILL_SLOPE 2.78, PBLUC_R_SQUARED 0.0147, read-out: LUCIFERASE INFECTION ASSAY - IC50”, the IC50 stood at 8.32 µM.
`CCCn1c(NC(=O)C2CCN(S(=O)(=O)c3cccc(Cl)c3Cl)CC2)nc2ccccc21`: the IC90 worked out at 6.16 µM. Besides, the IC50 (HEPG2TOX_HILL_SLOPE 3.25, HEPG2TOX_R_SQUARED 0.759, PBLUC_HILL_SLOPE 100, PBLUC_R_SQUARED 0.016, read-out: LUCIFERASE INFECTION ASSAY - IC50) was determined as 6.02 µM.
As for `CCOC(=O)C1=C(COC(=O)c2oc3ccc(OC)cc3c2C)NC(=O)NC1`, the IC90 was more than 10 µM. Besides, under “HEPG2TOX_HILL_SLOPE 3.23, HEPG2TOX_R_SQUARED 0.736, PBLUC_HILL_SLOPE 1.66, PBLUC_R_SQUARED 0.334, read-out: LUCIFERASE INFECTION ASSAY - IC50”, the IC50 was more than 10 µM.
In the case of `CN(C)CCNc1nc(-c2ccco2)c2c(c1C#N)CCCC2`, the IC90 is more than 10.6 µM. Also, under “HEPG2TOX_HILL_SLOPE 3.21, HEPG2TOX_R_SQUARED 0.873, PBLUC_HILL_SLOPE 1.18, PBLUC_R_SQUARED 0.659, read-out: LUCIFERASE INFECTION ASSAY - IC50”, the IC50 was 3.31 µM.
For the molecule `c1csc(-c2cnc3ccc(-c4cccc5ncccc45)nn23)c1`, the IC90 was determined as 5.26 µM. In addition, under “HEPG2TOX_HILL_SLOPE 3.19, HEPG2TOX_R_SQUARED 0.792, PBLUC_HILL_SLOPE 2.95, PBLUC_R_SQUARED 0.78, read-out: LUCIFERASE INFECTION ASSAY - IC50”, the IC50 was found to be 2.49 µM.

The record behind these values is ChEMBL document CHEMBL4483862, “Open-source discovery of chemical leads for next-generation chemoprotective antimalarials” (2018).
